Data on one compound can be found in patent US6451780B1, “Progesterone antagonists for the production of pharmaceutical agents for the treatment of dysfunctional uterine bleeding” (Schering Aktiengesellschaft, priority 1995, dated 2002).

The structures appear in SMILES notation.

What all share (format): in vivo
The subject of assay [1] is Women with menorrhagias and hypermenorrhea. Description: Prophylactic treatment of menorrhagias and hypermenorrhea with onapristone. As to conditions: 3-6 cycles. The method, then:
Prophylactic Treatment of Menorrhagias and Hypermenorrhea by One-time Administration of Onapristone Women with menorrhagias and hypermenorrhea are orally treated with 200-400 mg of onapristone every 28 days. […] The treatment is continued for 3-6 cycles. Prophylactic Treatment of Menorrhagias and Hypermenorrhea by Repeated Administration of Onapristone Women with menorrhagias and hypermenorrhea are orally treated every 28 days for a maximum of 10 days with 200-400 mg/day of onapristone. […] The treatment is continued for 3-6 cycles.

Assay [2] has as its system Women with dysfunctional metrorrhagias. Description: Prophylactic treatment of metrorrhagias with onapristone. Particulars: 3-6 cycles. How it is done:
Prophylactic Treatment of Metrorrhagias by One-time Administration of Onapristone Women with dysfunctional metrorrhagias are orally treated on a one-time basis with 200-400 mg of onapristone every 28 days. […] The treatment is continued for 3-6 cycles. Prophylactic Treatment of Metrorrhagias by Repeated Administration of Onapristone Women with dysfunctional metrorrhagias are orally treated every 28 days for a maximum of 10 days with 200-400 mg/day of onapristone. […] The treatment is continued over 3-6 cycles.

Assay [3] relates to Women with menorrhagias and hypermenorrhea. Kind of assay: Acute treatment of menorrhagias and hypermenorrhea with onapristone. How it is done: Acute Treatment of Menorrhagias and Hypermenorrhea by One-time Administration of Onapristone Women with menorrhagias and hypermenorrhea are orally treated on a one-time basis with 200-400 mg of onapristone on the 28th day of the cycle or on the first day of bleeding. The treatment induces menstruation-like bleeding of normal intensity (about 30 ml) and duration (about 5 days). Acute Treatment of Menorrhagias and Hypermenorrhea by Repeated Administration of Onapristone Women with menorrhagias and hypermenorrhea are orally treated until bleeding ceases on the 28th day of the cycle or on the first day of bleeding with 200-400 mg/day of onapristone, at most over 10 days.

The test system of assay [4] is Women with dysfunctional metrorrhagias. Kind of assay: Acute treatment of metrorrhagias with onapristone. As to conditions: one-time oral 200-400 mg, preferably luteal phase. The method, then:
Acute Treatment of Metrorrhagias by One-time Administration of Onapristone Women with dysfunctional metrorrhagias are orally treated on a one-time basis with 200-400 mg of onapristone. Preferred is treatment in the luteal phase of the cycle. The treatment results in a cessation of bleeding within 2-4 days.

[5] abbreviates: one-time oral 200-400 mg every 28 days.
Setting [6] is: repeated oral 200-400 mg/day every 28 days for a maximum of 10 days.
Where [7] appears, read: one-time oral 200-400 mg on 28th day of cycle or first day of bleeding.
Setting [8] is: repeated oral 200-400 mg/day until bleeding ceases, at most 10 days, from 28th day of cycle or first day of bleeding.

As for `CN(C)c1ccc([C@H]2C[C@]3(C)[C@@H](CC[C@]3(O)CCCO)[C@@H]3CCC4=CC(=O)CCC4=C32)cc1` [onapristone, 11β-(4-dimethylaminophenyl)-17α-hydroxy-17β-(3-hydroxy-propyl)-13α-methyl-4,9-gonadien-3-one], the “duration of induced menstruation-like bleeding” value in assay [1] (setting [5]), in assay [1] (setting [6]), in assay [2] (setting [5]), in assay [2] (setting [6]), in assay [3] (setting [7]) and in assay [3] (setting [8]) was “about 5 days” throughout. The “intensity of induced menstruation-like bleeding” value in assay [1] (setting [5]), in assay [1] (setting [6]), in assay [2] (setting [5]), in assay [2] (setting [6]), in assay [3] (setting [7]) and in assay [3] (setting [8]) was “about 30 ml” throughout. The “occurrence of menorrhagias and hypermenorrhea” value is “prevents the occurrence of menorrhagias and hypermenorrhea” in assay [1] (setting [5]); “prevents the occurrence of menorrhagias and hypermenorrhea” in assay [1] (setting [6]). Besides, the occurrence of metrorrhagias entry in assay [2] (setting [5]) and in assay [2] (setting [6]) was “prevents the occurrence of metrorrhagias” throughout. In addition, the increased blood loss result in assay [3] (repeated oral 200-400 mg/day until bleeding ceases, at most 10 days) is “prevents increased blood loss”. Also, the “cessation of bleeding within” value in assay [4] was 2 to 4 days.
